Results taken from the NIST ThermoML archive (doi:10.1021/je900056u).

Key:
[1] = 101 kPa, Liquid; for speed of sound: Linear variable-path acoustic interferometer; for mass density: Pycnometric method
[2] = xn = mol fraction of the nth substance listed; details: 101 kPa, Liquid; for speed of sound: Linear variable-path acoustic interferometer; for mass density: Pycnometric method

CCC(=O)CC [pentan-3-one]
[1]
Details | mass density [kg/m3] | speed of sound [m/s]
303.15 K | 804.5 | 1197
308.15 K | 799.6 | 1179
313.15 K | 794.3 | 1160

CCCC(C)=O [pentan-2-one] + O=S1(=O)CCCC1
[2]
Details | mass density, 303.15 K [kg/m3] | mass density, 308.15 K [kg/m3] | mass density, 313.15 K [kg/m3] | speed of sound, 303.15 K [m/s] | speed of sound, 308.15 K [m/s] | speed of sound, 313.15 K [m/s]
x2 = 0 | 796.6 | 792.7 | 785.5 | 1192 | 1176 | 1151
x2 = 0.0261 | 808.2 | 804.2 | 797.8 | 1203 | 1183 | 1161
x2 = 0.162 | 869.2 | 864.6 | 858.8 | 1246 | 1225 | 1203
x2 = 0.2945 | 929.2 | 924.8 | 919.1 | 1290 | 1271 | 1251
x2 = 0.445 | 998.5 | 994.6 | 989.1 | 1352 | 1340 | 1318
x2 = 0.5296 | 1038.2 | 1034.5 | 1029.1 | 1384 | 1373 | 1353
x2 = 0.6319 | 1086.6 | 1082.8 | 1078 | 1429 | 1418 | 1401
x2 = 0.7498 | 1143.2 | 1139.2 | 1134.7 | 1484 | 1469 | 1450
x2 = 0.8677 | 1200.2 | 1195.8 | 1191.6 | 1536 | 1520 | 1503
x2 = 0.9799 | 1253.2 | 1248.5 | 1243.6 | 1580 | 1562 | 1549

O=S1(=O)CCCC1 [sulfolane] + CCC(C)=O
[2]
Details | mass density, 303.15 K [kg/m3] | mass density, 308.15 K [kg/m3] | mass density, 313.15 K [kg/m3] | speed of sound, 303.15 K [m/s] | speed of sound, 308.15 K [m/s] | speed of sound, 313.15 K [m/s]
x1 = 0.0293 | 810.6 | 806.2 | 799.2 | 1191 | 1170 | 1149
x1 = 0.1391 | 869.7 | 865.6 | 858.7 | 1234 | 1215 | 1195
x1 = 0.2575 | 931.6 | 927.5 | 920.9 | 1288 | 1266 | 1247
x1 = 0.3803 | 993.5 | 989.6 | 983.5 | 1341 | 1319 | 1300
x1 = 0.4834 | 1043.1 | 1039.9 | 1034.4 | 1386 | 1366 | 1346
x1 = 0.5854 | 1089.7 | 1086.6 | 1081.8 | 1431 | 1413 | 1395
x1 = 0.7119 | 1145.2 | 1142 | 1137.2 | 1481 | 1465 | 1450
x1 = 0.8428 | 1200.5 | 1196.8 | 1191.8 | 1533 | 1517 | 1502
x1 = 0.9756 | 1252.7 | 1249 | 1243.7 | 1581 | 1568 | 1552
x1 = 1 | 1261.8 | 1257 | 1251.6 | 1588 | 1576 | 1558

O=S1(=O)CCCC1 [sulfolane] + CCCC(C)=O
[2], x1 = 1
Details | mass density [kg/m3] | speed of sound [m/s]
303.15 K | 1261.8 | 1588
308.15 K | 1257 | 1576
313.15 K | 1251.6 | 1558

CC(=O)CC(C)C [4-methylpentan-2-one]
[1]
Details | mass density [kg/m3] | speed of sound [m/s]
303.15 K | 791.7 | 1175
308.15 K | 787.7 | 1156
313.15 K | 782.6 | 1138

CCC(C)=O [butanone]
[1]
Details | mass density [kg/m3] | speed of sound [m/s]
303.15 K | 794.6 | 1178
308.15 K | 790.4 | 1158
313.15 K | 783.1 | 1136

CCCC(C)=O [pentan-2-one]
[1]
Details | mass density [kg/m3] | speed of sound [m/s]
303.15 K | 796.6 | 1192
308.15 K | 792.7 | 1176
313.15 K | 785.5 | 1151
